Results as given in patent US10316371B2, “Screening methods for identifying specific Staphylococcus aureus inhibitors” (TRANA DISCOVERY, INC., priority 2011, dated 2019).
pIC50: −log10 of the molar value. Values after ≈ are worked out from the molar mass of the structure shown. Read-outs that look alike come from different tables or passages of the source.

Columns and labels:
[1] = test system: S. aureus specific Arg ASL (anticodon stem loop) RNA oligomer interaction with programmed ribosomes; experiment: Fluorescence polarization assay of Arg ASL / programmed ribosome complex (HTS and dose response); type: binding, S. aureus Arg ASL; E. coli 70S ribosomes; conditions: 6 pt dose response, fluorescence polarization after 4 hours at 25° C., corrected for auto-fluorescence; for pIC50: read-out: IC50
From the text: The assay requires the following materials: • Ribosomes—isolated from E. coli or S. aureus • fMet tRNA (Sigma or Chemical Block, Moscow) • mRNA (including the S-D sequence, the “box” sequence, the codon for methionine, and the codon for arginine that is specific for S. aureus, AGA, optionally with additional base pairs to the left of the S-D sequence and/or to the right of the codon for arginine) • Fluorescently labeled Arg ASL oliogomer • Buffer—HAM20,β • 384 well high binding micro titer plates (Matrix Technologies #4319, sold by Fischer Scientific as cat #50823855), or other appropriate plates for use in high throughput screening • Filtration (Sartorius Stedium 100 Kdalton VC 1042) or centrifugation for complex purification • EDTA—negative control (binding antagonist) • Neomycin—A-site binding enhancer (binding agonist)
A ribosome complex was prepared using the above materials and then purified prior to use in the assay. The prepared complex can be stored in concentrated form at −80° C. The complexes were diluted in buffer and dispensed onto plates. […] Fluorescence polarization was measured at approximately 4 hours after dispensing onto the micro-titer plates.
ASL^Arg was first heated for 2 min at 90° C. in water, after addition of 1/10 V of 10× buffer incubation continued on ice for at least 10 min. Prior to complex formation 70S ribosomes and tRNA were reactivated in buffer for 5 min at 45° C. followed by 10 min at 37° C.; mRNA was heated in buffer at 37° C. for 5 min. • (1000 μl×(2 μM E. coli 70S ribosomes+10 μM mRNA-Arg+4 μM tRNA^fmet)/HAM20,β→30 min @ 37° C.,+1000 μl×(0.2 μM neomycin+[…]))→20 min @ 37° C., overnight on ice • Final complex: (2000 pm P+2000 pm ASL)/2 ml=1 μM P+1 μM ASL HAM20,β:
Preparation of Complexes: The purified complex was diluted in ice cold HAM20,β such that the total fluorescence was approximately 2,000,000 units per 5 μL.
20 μl of the diluted complex was added to all 384 well plates (except for blank wells, which received 20 μL of HAM20 only, without complex) using Multidrop dispenser after which the plates were incubated at 25° C. for 4 hours (target 4.5 hours for middle of batch). Plates were then analyzed for fluorescence polarization in Analyst HT fluorescence plate reader and the following instrument settings:
The parallel and perpendicular fluorescence values of experimental wells were automatically corrected for the corresponding values obtained from the blank wells. The fluorescence polarization was calculated as following: P=(I−Ip)/(I+Ip), wherein Ip—is perpendicular fluorescence and I—is parallel fluorescence.
The percent of effect of experimental compounds was calculated as following: %-Inh=(P0−Pc)/(P0−P100)*100, wherein P0—is average polarization in 0%—inhibition control wells, P100—is average polarization in 100%—inhibition control wells, and Pc—is polarization in compound well.
The 3 sigma HTS hits were cherry picked and retested in 6 pt dose response format, using 3× serial dilution and the top nominal concentration of 100 uM.
The compounds were serially diluted in 10% DMSO and plated into 384 well plates (in a volume of 5 μL) to achieve the nominal final concentration raging from 100 μM to 0.4 μM. The plates received 20 μl of the diluted complex following incubation at 25° C. for 4 hours. Plates were then analyzed for fluorescence polarization as described above (see HTS section).
In parallel, the compounds were tested for auto-fluorescence. To this end, the compounds were plated (using the same dilution protocol) into 384 well plates. The plates received 20 μL of the HAM20 assay buffer only (without complex). The plates were incubated for 4 hrs and then were analyzed for fluorescence polarization as described above.

[2] = test system: SA 158 (Staphylococcus aureus 158); experiment: MIC; type: cell-based; conditions: SA 158, read-out: MIC
Description: (§1) The strains included Staphylococcus aureus, Methicillin Resistant (ATCC 33591), Methicillin-Resistant Staphylococcus aureus USA300, Staphylococcus aureus 158, Staphylococcus aureus 22, Staphylococcus aureus 2, Staphylococcus aureus (ATCC 29213), and Staphylococcus aureus 182.
(§2) A series of compounds were evaluated for their activity against drug resistant S. aureus, including MSSA and MRSA strains.

[3] = test system: SA 182 (Staphylococcus aureus 182); experiment: MIC; type: cell-based; conditions: SA 182, read-out: MIC
Description: as §1, §2

[4] = test system: SA 2 (Staphylococcus aureus 2); experiment: MIC; type: cell-based; conditions: SA 2, read-out: MIC
Description: as §1, §2

[5] = test system: SA 22 (Staphylococcus aureus 22); experiment: MIC; type: cell-based; conditions: SA 22, read-out: MIC
Description: as §1, §2

[6] = test system: SA 29213 (Staphylococcus aureus (ATCC 29213)); experiment: MIC; type: cell-based; conditions: ATCC29213, SA 29213, read-out: MIC
Description: as §1, §2

[7] = test system: SA 33591 (Staphylococcus aureus, Methicillin Resistant (ATCC 33591)); experiment: MIC; type: cell-based; conditions: ATCC33591, SA 33591, read-out: MIC
Description: as §1, §2

[8] = test system: SA USA 300 (Methicillin-Resistant Staphylococcus aureus USA300); experiment: MIC; type: cell-based; conditions: SA USA 300, read-out: MIC
Description: as §1, §2

E. faecalis 161651 = experiment: MIC; type: cell-based; conditions: Enterococcus faecalis; E. faecalis 161651; read-out: MIC
Description: (§3) The compounds were re-tested against other bacteria, including Staphylococcus epidermidis (ATCC 35984), Staphylococcus epidermidis (MRSE), E. faecium 134529, E. faecium 145494, […], E. faecium 161651, S. pneumoniae 49619, and S. pneumoniae 149389.
as §2

E. faecalis 29212 = experiment: MIC; type: cell-based; conditions: Enterococcus faecalis; E. faecalis 29212; read-out: MIC
Description: as §3, §2

E. faecium 134529 = experiment: MIC; type: cell-based; conditions: Enterococcus faecium; E. faecium 134529; read-out: MIC
Description: as §3, §2

E. faecium 145494 = experiment: MIC; type: cell-based; conditions: Enterococcus faecium; E. faecium 145494; read-out: MIC
Description: as §3, §2

S. epidermidis 35984 = experiment: MIC; type: cell-based; conditions: Staphylococcus epidermidis; S. epidermidis 35984; read-out: MIC
Description: as §3, §2

S. epidermidis MRSE 01 = experiment: MIC; type: cell-based; conditions: Staphylococcus epidermidis; S. epidermidis MRSE 01; read-out: MIC
Description: as §3, §2

S. pneumoniae 149389 = experiment: MIC; type: cell-based; conditions: Streptococcus pneumoniae; S. pneumoniae 149389; read-out: MIC
Description: as §3, §2

S. pneumoniae 49619 = experiment: MIC; type: cell-based; conditions: Streptococcus pneumoniae; S. pneumoniae 49619; read-out: MIC
Description: as §3, §2

E. coli 25922 = experiment: MIC; type: cell-based; conditions: Escherichia coli; E. coli 25922; read-out: MIC
E. coli ESBL 4 = experiment: MIC; type: cell-based; conditions: Escherichia coli, ESBL4; E. coli ESBL 4; read-out: MIC
K. pneumoniae 700603 = experiment: MIC; type: cell-based; conditions: Klebsiella pneumoniae; K. pneumoniae 700603; read-out: MIC
K. pneumoniae UMM = experiment: MIC; type: cell-based; conditions: Klebsiella pneumoniae; K. pneumoniae UMM; read-out: MIC
Mammalian Cell Toxicity [9] = type: cell-based; conditions: human, MRC5 cells
Mammalian Cell Toxicity [10] = type: cell-based; conditions: mouse, 3T3 cells

Row | MIC [2] [µg/mL] | MIC [3] [µg/mL] | MIC [4] [µg/mL] | MIC [5] [µg/mL] | MIC [6] [µg/mL] | MIC [7] [µg/mL] | MIC [8] [µg/mL] | MIC (E. faecalis 161651) [µg/mL] | MIC (E. faecalis 29212) [µg/mL] | MIC (E. faecium 134529) [µg/mL] | MIC (E. faecium 145494) [µg/mL] | MIC (S. epidermidis 35984) [µg/mL] | MIC (S. epidermidis MRSE 01) [µg/mL] | MIC (S. pneumoniae 149389) [µg/mL] | MIC (S. pneumoniae 49619) [µg/mL] | MIC (E. coli 25922) [µg/mL] | MIC (E. coli ESBL 4) [µg/mL] | MIC (K. pneumoniae 700603) [µg/mL] | MIC (K. pneumoniae UMM) [µg/mL] | SMILES | CC50 (Mammalian Cell Toxicity [9]) [µg/mL] | also measured
1 | 32 (≈ 82.8 µM) | > 128 | 16 (≈ 41.4 µM) | 16 (≈ 41.4 µM) | 32 (≈ 82.8 µM) | 32 (≈ 82.8 µM) | 128 (≈ 331 µM) | 128 (≈ 331 µM) | 128 (≈ 331 µM) | 64 (≈ 166 µM) | > 128 | 64 (≈ 166 µM) | 8 (≈ 20.7 µM) | > 128 | > 128 | > 128 | > 128 | > 128 | > 128 | Oc1ccccc1N=Cc1c(O)c(Br)cc2oc3c(c12)CCCC3 [Compound 136, 3-bromo-1-{[(2-hydroxyphenyl)imino]methyl}-6,7,8,9-tetrahydrodibenzo[b,d]furan-2-ol] | 6.8 (≈ 17.6 µM) | pIC50 [1]: 4.10; CC50 (Mammalian Cell Toxicity [10]): 2.3 µg/mL (≈ 5.95 µM)
2 | 64 (≈ 162 µM) | 64 (≈ 162 µM) | 128 (≈ 324 µM) | 64 (≈ 162 µM) | 64 (≈ 162 µM) | 64 (≈ 162 µM) | 64 (≈ 162 µM) | 128 (≈ 324 µM) | 128 (≈ 324 µM) | 128 (≈ 324 µM) | > 128 | 128 (≈ 324 µM) | 128 (≈ 324 µM) | 64 (≈ 162 µM) | 32 (≈ 81.1 µM) | > 128 | > 128 | > 128 | > 128 | O=C(O)C(c1ccccc1)N1C(=O)C(=Cc2c[nH]c3ccccc23)SC1=S (stereo not drawn) [Compound 537, [5-(1H-indol-3-ylmethylene)-4-oxo-2-thioxo-1,3-thiazolidin-3-yl](phenyl)acetic acid] | 38 (≈ 96.3 µM) | IC50 [1]: agonist; CC50 (Mammalian Cell Toxicity [10]): 20 to 64 µg/mL (≈ 50.7 to 162 µM)
3 | 128 (≈ 387 µM) | 128 (≈ 387 µM) | 32 (≈ 96.8 µM) | 64 (≈ 194 µM) | 64 (≈ 194 µM) | > 128 | 64 (≈ 194 µM) | 128 (≈ 387 µM) | 128 (≈ 387 µM) | 64 (≈ 194 µM) | 128 (≈ 387 µM) | > 128 | 128 (≈ 387 µM) | 64 (≈ 194 µM) | 64 (≈ 194 µM) | > 128 | > 128 | > 128 | > 128 | CN1CCN(c2nc(C=Cc3ccccc3)nc3ccccc23)CC1 [Compound #096, 4-(4-methyl-1-piperazinyl)-2-(2-phenylvinyl)quinazoline] | 62 (≈ 188 µM) | pIC50 [1]: 4.04; CC50 (Mammalian Cell Toxicity [10]): 51.5 µg/mL (≈ 156 µM)
